Values of other authors, collected in patent US8828412B2, “Stable polyphenol containing ophthalmic emulsion for treating dry eyes” (Abbott Medical Optics Inc., priority 2009, dated 2014).

Details: reported; species not stated

COc1cc(/C=C/C(=O)CC(=O)/C=C/c2ccc(O)c(OC)c2)ccc1O [curcumin]
oral bioavailability: about 60%
